The values below come from paper PMC11333937 (Science translational medicine, 2024).

Data set [1] relates to SARS-CoV-2 WA/1. Description: microbe, parasite or virus in culture. The data set is classed as cell-based. The note with it: Severe acute respiratory syndrome coronavirus 2, read-out: EC50, inhibition of SARS-CoV-2 replication.
For another data set, the system named is SARS-CoV Urbani. The data set is classed as cell-based. The settings on record: HAE, two donors, 10, 1, 0.1 μM, MOI 0.5, 72 hpi.
The subject of the next data set is bat-CoV RsSHC014. The data set is classed as cell-based.
The test system of data set [2] is SARS-CoV-2 WA/1. The data set is classed as cell-based.
For another data set, the system named is SARS-CoV-2 Omicron BA.1. The data set is classed as cell-based.
In a further data set the test system is MERS-CoV. The class given is cell-based. The settings on record: HAE, two donors, 10, 1, 0.1 μM, MOI 0.5, 72 hpi.
The subject of data set [3] is SARS-like bat-CoV RsSHC014. The class given is in vivo, mouse.
In data set [4] the test system is SARS-CoV-2 Omicron (B.1.1.529/BA.1). The settings on record: mouse, in vivo.
In data set [5] the test system is primary human airway epithelial (HAE) cells.
The conditions of data set [6]: not told; cited from earlier work.
Data set [7] in a line: Mouse GS-5245 pharmacokinetic study. The settings on record: 30 mg/kg GS-5245 oral, timepoints over 24 hr, three mouse strains.
For data set [8] the following is noted: direct oral dosing of GS-441524, non-human primates; cited from earlier work.

Like-named read-outs stand apart in the source and are kept apart here.

A word on the EC50: it is the concentration that produces a half-maximal response. Take `CC(C)C(=O)OC[C@H]1O[C@@](C#N)(c2ccc3c(N)ncnn23)[C@H](O)[C@@H]1O` [GS-5245]: the EC50 in the data set on SARS-CoV-2 WA/1 [1] stood at 0.74 µM. Also, the “infectious virus production (PFU in apical washes)” value with SARS-CoV Urbani, in the data set on bat-CoV RsSHC014, in the data set on SARS-CoV-2 WA/1 [2], in the data set on SARS-CoV-2 Omicron BA.1 and with MERS-CoV was “dose-dependent reduction in infectious virus production” each time. Also, the “viral titers and gross lung pathology” value in data set [3] (10 mg/kg BID, 12 or 24 hpi, 4 dpi) is on record as “did not exhibit reduced viral titers”. Further, the “body weight compared to vehicle-treated mice” value in [3] (30 mg/kg BID initiated at 12 hpi) was “increased weight”. Also, the “virus lung titers and gross lung pathology” value in data set [3] (30 mg/kg BID, irrespective of initiation time (12 or 24 hpi), 4 dpi) is “reduced virus lung titers and gross lung pathology”. Also, the “acute lung injury scores (ATS and DAD)” value is recorded as “reductions in DAD scores only” in data set [3] (30 mg/kg initiated 24 hpi, 4 dpi) and “reduced acute lung injury scores with both scoring tools” in data set [3] (30 mg/kg initiated at 12 hpi, 4 dpi). Moreover, the “ATS ALI and DAD scores” value in data set [4] is reported as “Unlike ATS ALI scores (Fig. 6D), DAD scores were different”. In addition, the “lung viral titers relative to vehicle” value in [4] is listed as “lower lung viral titers”. For the same compound, in data set [4], the macroscopic lung pathology entry was “less macroscopic lung pathology”. Further, the cytotoxicity entry in the data set on A549-hACE2 cells and in the data set on LLC-MK2-TMPRSS2 cells was “without cytotoxicity” each time. Further, the “cytotoxicity in HAE” value in [5] is “without measurable cytotoxicity”. The cellular permeability entry in data set [6] is “increased cellular permeability over GS-441524”. The “intact GS-5245 prodrug in plasma” value in [7] is “No intact GS-5245 prodrug was observed at any timepoint sampled”.

As to `N#C[C@@]1(c2ccc3c(N)ncnn23)O[C@H](CO)[C@@H](O)[C@H]1O` [GS-441524], the EC50 in the data set with SARS-CoV-2 WA/1 [1] was determined as 4.6 µM. The cytotoxicity entry with LLC-MK2-TMPRSS2 cells is “without cytotoxicity”. For the same compound, the oral bioavailability entry in data set [8] is given as “low bioavailability”.

For the compound `CC(C)(C)[C@H](NC(=O)C(F)(F)F)C(=O)N1C[C@H]2[C@@H]([C@H]1C(=O)N[C@H](C#N)C[C@@H]1CCNC1=O)C2(C)C` [nirmatrelvir], in the data set with SARS-CoV-2 WA/1 [1], the EC50 was determined as 0.07 µM.

On to `CCC(CC)COC(=O)[C@H](C)N[P@](=O)(OC[C@H]1O[C@@](C#N)(c2ccc3c(N)ncnn23)[C@H](O)[C@@H]1O)Oc1ccccc1` [remdesivir], for which the concentration for a half-maximal effect (EC50) in the data set on SARS-CoV-2 WA/1 [1] worked out at 0.19 µM. In the data set on LLC-MK2-TMPRSS2 cells, the cytotoxicity entry was “without cytotoxicity”.
